Experimental findings from patent publication US20240279202A1 (NURIX THERAPEUTICS, INC., priority 2021, published 2024) are described below.

In one data set the target is T1, ITK (Homo sapiens, UniProt Q08881).
T1 sequence (Q08881 1-620): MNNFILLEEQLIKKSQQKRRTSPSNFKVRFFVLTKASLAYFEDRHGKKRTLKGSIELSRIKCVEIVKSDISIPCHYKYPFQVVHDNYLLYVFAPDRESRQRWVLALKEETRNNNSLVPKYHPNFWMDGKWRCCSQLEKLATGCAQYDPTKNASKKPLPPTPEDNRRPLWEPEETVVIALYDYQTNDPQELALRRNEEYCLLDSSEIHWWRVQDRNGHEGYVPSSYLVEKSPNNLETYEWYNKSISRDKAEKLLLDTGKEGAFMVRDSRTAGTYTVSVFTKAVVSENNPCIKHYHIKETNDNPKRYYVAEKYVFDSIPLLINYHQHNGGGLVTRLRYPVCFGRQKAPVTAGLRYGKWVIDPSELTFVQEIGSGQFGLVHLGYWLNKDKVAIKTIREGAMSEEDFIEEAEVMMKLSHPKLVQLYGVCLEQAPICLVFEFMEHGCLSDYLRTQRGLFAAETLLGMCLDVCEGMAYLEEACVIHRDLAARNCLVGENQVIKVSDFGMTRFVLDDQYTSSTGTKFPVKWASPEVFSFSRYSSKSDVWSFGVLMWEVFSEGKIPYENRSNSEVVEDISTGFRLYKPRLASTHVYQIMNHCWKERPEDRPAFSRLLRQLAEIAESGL
In words: ITK degradation MSD (Meso Scale Discovery) assay. On the set-up: either human Jurkat (Clone E6-1 ATCC TIB-152) or Motl4 (ATCC CRL-1552), were plated; endogenous in cells; host or cells: Jurkat clone E6-1 (ATCC TIB-152) or Molt4 (ATCC CRL-1552). The conditions noted are these: Jurkat or Molt4 cells, 4 or 6 hrs. The class given is cell-based. As to the method: ITK Degradation MSD (Meso Scale Discovery) Assay Compound dilution series (7-point, 5 fold dilutions in DMSO, rows B-H with replicate in Column 1⁄2, 3⁄4, 5⁄6, 7,8, at 2000× the final required concentrations were prepared in 96 well plates (Falcon, cat. no. 353077). Row A, Column 1-8 were control DMSO. The 2000× solutions ranged from 2 mM to 128 nM (final assay concentration range 1 μM to […]). The 2000× solutions were added to cells in […], for a final DMSO concentration of 0.5% and final assay compound concentration of 1×. For the cells, either human Jurkat (Clone E6-1 ATCC TIB-152) or Motl4 (ATCC CRL-1552), were plated at 1×10^6 cells/mL, 100 μL/well ([…]) in complete RPMI (10% FBS, 1% L-glutamine). Cells were incubated for 4 or 6 hrs at 32° C./6% CO2. Following incubation, plates were centrifuged at 1200 rpm for 5 min. supernatant was removed and 50 μL of cell lysis buffer ((MSD Tris lysis buffer (R60TX), Complete Mini EDTA-free protease inhibitor (Sigma 11836170001), Protease Inhibitor Cocktail (Sigma, P2714), Phosphatase Inhibitor Cocktail 2 and 3 (Sigma, P5726 and P0044), and Benzonase (Sigma, E1014)) was added to each well. Plates were sealed and shook at 4° C. for 30 min. Plates were centrifuged and 45 μL was removed for plate assays. Assay plate preparation: Meso Scale Discovery (MSD) multi-array sm spot 96 well plates (Goat anti-Rabbit L^45-RA), were blocked with 3% BSA blocking buffer (3% Bovine Serum Albumin (Sigma A3059)+TBS 0.2% Tween-20) for 1 hr with gentle rocking at room temperature. Plates were then washed with 200 μL of 1× TBST (TBS 0.2% Tween-20) 3 times. After last wash, liquid was removed and 50 μL per well of capture antibody (abcam ITK Y402-ab32507) was added to plates at a 1:1000 dilution in blocking buffer (above). Plates were sealed and rocked at room temperature for 2 hrs. Plates were then washed 3 times with 200 μL of 1× TBST. After last wash, liquid was removed and 45 μL of cell lysate (from above) was added to each plate. Plates were sealed and rocked overnight at 4° C. Next day, cell lysates were removed, and assay plates were washed 3 times with 200 μL of 1× TBST. After last wash, liquid was removed and detection antibody (CST ITK (2F12) #2380) was added at 50 μL per well at a dilution of 1:1000 in blocking buffer. Plates were sealed and rocked at room temperature for 2 hrs. Plates were washed 3 times with 200 uL of 1× TBST. After last wash, liquid was removed, MSD Mouse anti-Rabbit sulfo tag (R32AC-1) was diluted to 1:1000 in blocking buffer. 50 μL was added to each well on the plate. Plates were sealed and incubated at room temperature for 1 hr. Plates were washed 3 times with 200 μL of 1× TBST. After last wash, liquid was removed and 150 μL of 1× MSD Read Buffer T ([…]) was then added to each well for ECL read out. For reading ECL signal, plate is read on a Meso Scale Discovery (MSD) MESO Sector S 600 plate reader. Percent ITK in then calculated as described below. Percent ITK remaining per sample was calculated as follows: [formula] Using Graphpad Prism, % ITK remaining values were plotted as a function of compound concentration. To determine DC50 and Dmax values, resulting curves were fit to the Prism curve-fitting equation “log(inhibitor) vs response-Variable slope (four parameters)” (reported best fit value IC50 used as DC50).

The nature of data set [1]: Mouse PK analysis (blood/plasma concentration after oral administration). The class given is in vivo. Conditions: mice; for concentration at 6 h: read-out: Cal. Conc. Total (μM) 6 h. As for the experimental part:
Compounds 1, 3, 7, and 42 were formulated and administered at 90 mg/kg to mice by oral gavage (PO). Blood was collected at defined time points (after 1, 2, and 6 hours) after compounds administration to determine PK parameters. Concentration increased through 6 hours. Six hours later mice were sacrificed and splenocytes were isolated and used to prepare protein lysates. Total protein levels were determined in the lysates using the BCA assay according to standard methods. Equal amounts of protein were then analyzed by Western blot to determine the level of ITK expression in each sample. ITK band intensities were measured using Alpha View software and the percent of ITK remaining in each test animal was determined relative to the mean of ITK levels in vehicle control samples.
Compounds 16, 17, and 18 were administered to mice orally. After 6 hours or 24 hours, splenocytes cells were harvested. ITK was evaluated by Western blotting. Plasma concentrations were determined by LC/MS/MS. Plasma samples were protein precipitated by addition of 100 μl of acetonitrile containing 50 ng/ml of internal standard. The resulting mixture was vortexed and centrifuged at 4000 RPM for 5 minutes. An aliquot of the resultant supernatant (75 μl) was added to 75 μl of 0.1% formic acid in water to constitute the final sample for injection. Samples were injected on a Shimadzu Exion LC Binary Gradient AD Pump HLPC system connected to a Sciex QTRAP 6500+mass spectrometer. Five μl of sample was injected onto a Waters Acquity UPLC BEH C18 column 130A (2.1×30 mm, […]) at 40° C. utilizing a flow rate of 700 μl/minute. Mobile Phase A was 0.1% formic acid in water and mobile phase B was 0.1% formic acid in acetonitrile. A linear gradient of 15-95% B over 1.0 minute was used. The mass spectrometer was operated in positive ion electrospray mode with multiple reaction monitoring for maximum sensitivity. Sciex Analyst software (version 1.6.3) was used for LC/MS/MS instrument control and acquisition. Compound concentration was determined against a standard curve of internal standard versus compound peak area ratio. Noncompartmental PK parameters were determined using […] software (version 8.2.0.4383) from Certara. Plasma concentrations from the LC/MS/MS analyses, dose, route of administration, and desired units were utilized for PK parameter calculations. […] FIG. 4C provides the concentration over time of compound 17 following in vivo oral administration in the 6 hour and 24 hour assays.
Cmax, Tmax and AUClast were all calculated using a WinNonLin Phoenix 64 v 8.2.0.4383. Using non-compartmental analysis, Tmax, Cmax and AUClast were determined as follows: • Tmax—Time of maximum observed concentration. • Cmax—Maximum observed concentration, occurring at time Tmax, as defined above. • AUClast—Area under the curve from the time of dosing to the time of the last measurable (positive) concentration (Tlast).

One may read the DC50 as the concentration giving 50% degradation. The low end stands for a more potent degrader, the high end for a less potent degrader. In general, Dmax refers to the largest share of the target that was removed. Lower therefore signals shallow degradation. Take `C[C@@]12Cc3[nH]nc(C(=O)Nc4cnn([C@H](c5ccccc5)C5CN(C(=O)C6CCN(c7ccc8c(c7)C(=O)N(C7CCC(=O)NC7=O)C8=O)CC6)C5)c4)c3C[C@@H]1C2(F)F` (stereo partly drawn) [Compound 38, (4aS,5aR)-N-(1-((1S)-(1-(1-(2-(2,6-dioxopiperidin-3-yl)-1,3-dioxoisoindolin-5-yl)piperidine-4-carbonyl)azetidin-3-yl)(phenyl)methyl)-1H-pyrazol-4-yl)-5,5-difluoro-5a-methyl-1,4,4a,5,5a,6-hexahydrocyclopropafindazole-3-carboxamide]: at ITK, the DC50 amounted to 200 pM and the maximal degradation (Dmax) was found to be 84%. For the same compound, the concentration at 2 h in data set [1] (mouse, plasma, oral, 90 mg/kg, 2 h, read-out: Cal. Conc. Total (μM) 2 h) came out at 0.0046 µM. Besides, the concentration at 6 h in data set [1] (mouse, plasma, oral, 90 mg/kg) was 0.0024 µM.
With `C[C@@]12Cc3[nH]nc(C(=O)Nc4cnn([C@H](c5ccccc5)C5CN(C(=O)C6CCN(c7ccc(C(=O)NC8CCC(=O)NC8=O)nc7)CC6)C5)c4)c3C[C@@H]1C2(F)F` (stereo partly drawn) [Compound 40, (4aS,5aR)-N-(1-((1S)-(1-(1-(6-((2,6-dioxopiperidin-3-yl)carbamoyl)pyridin-3-yl)piperidine-4-carbonyl)azetidin-3-yl)(phenyl)methyl)-1H-pyrazol-4-yl)-5,5-difluoro-5a-methyl-1,4,4a,5,5a,6-hexahydrocyclopropa[f]indazole-3-carboxamide], at ITK, the greatest degradation seen (Dmax) was determined as 46%. Further, in data set [1] (2 h), the “Cal. Conc. Total (μM) 2 h” value is given as “BQL”. For the same compound, in data set [1] (mouse, plasma, oral, 90 mg/kg), the concentration at 6 h came to 0.009 µM.
